Read-outs that look alike come from different tables or passages of the source.
How the values were obtained:
Assay type in all cases: biochemical
recombinant human DPP7 = target: T1, recombinant human DPP7 (Homo sapiens, UniProt Q9UHL4); experiment: DPP7 inhibition, fluorogenic substrate Lys-Pro-AMC
T1 construct: purchased R&D Systems
Procedure, shortened: (§1)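 Enzyme per reaction: 50 ng DPP9, 20 ng DPP8, 10 ng each DPP7 and PREP. Compounds were serially diluted (8 points, up to 0.5% DMSO) and incubated at 25 °C.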

Recombinant human FAP = target: T2, Recombinant human FAP (Homo sapiens, UniProt Q12884); experiment: FAP inhibition, fluorogenic substrate Z-Gly-Pro-AMC
T2 construct: purchased R&D systems
T2 sequence (Q12884 1-760): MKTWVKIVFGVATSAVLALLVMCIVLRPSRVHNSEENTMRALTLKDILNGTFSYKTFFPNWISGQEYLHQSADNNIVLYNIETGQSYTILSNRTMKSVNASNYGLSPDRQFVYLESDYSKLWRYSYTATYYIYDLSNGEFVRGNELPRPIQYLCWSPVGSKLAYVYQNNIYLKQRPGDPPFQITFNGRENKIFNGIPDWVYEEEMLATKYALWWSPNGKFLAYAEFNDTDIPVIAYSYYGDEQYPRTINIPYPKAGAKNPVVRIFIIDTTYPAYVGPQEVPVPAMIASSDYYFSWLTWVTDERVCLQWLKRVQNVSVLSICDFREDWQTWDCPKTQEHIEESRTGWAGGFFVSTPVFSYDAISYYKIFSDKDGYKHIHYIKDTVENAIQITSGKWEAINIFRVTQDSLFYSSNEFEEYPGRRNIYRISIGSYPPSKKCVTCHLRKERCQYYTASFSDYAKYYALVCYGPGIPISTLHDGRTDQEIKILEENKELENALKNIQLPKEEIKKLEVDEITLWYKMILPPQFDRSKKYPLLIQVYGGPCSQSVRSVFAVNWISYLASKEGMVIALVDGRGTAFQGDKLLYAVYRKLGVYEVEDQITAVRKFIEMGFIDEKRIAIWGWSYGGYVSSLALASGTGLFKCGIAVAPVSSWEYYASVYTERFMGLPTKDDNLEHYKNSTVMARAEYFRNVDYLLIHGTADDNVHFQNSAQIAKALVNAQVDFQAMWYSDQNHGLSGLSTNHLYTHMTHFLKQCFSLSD
Procedure, shortened: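 Recombinant human FAP, 10 ng per reaction, in 50 mM Tris pH 7.5 with 1 M NaCl and 1 mg/ml BSA at 25° C; substrate Z-Gly-Pro-AMC, ≤0.1% DMSO. AMC fluorescence read at ex 380/em 460 nm; % signal-rate decrease vs no-inhibitor control, 8-point curves fitted to a four-parameter logistic for IC50.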

recombinant human DPP9 = target: T3, recombinant human DPP9 (Homo sapiens, UniProt Q86TI2); experiment: DPP9 inhibition, fluorogenic substrate H-Gly-Pro-AMC
T3 construct: purchased R&D Systems
Procedure, shortened: as §1

recombinant human DPP8 = target: T4, recombinant human DPP8 (Homo sapiens, UniProt Q6V1X1); experiment: DPP8 inhibition, fluorogenic substrate Z-Ala-Pro-AMC
T4 construct: purchased PBS Bioscience
Description: The compounds according to the present technology were evaluated in terms of the inhibitory effect on the activity of dipeptidyl peptidases including FAP by using a substrate producing fluorescent substances upon enzymatic decomposition. The test was conducted at 25° C. to get a final reaction volume of 100 μL in a 96 black well plate. […] Briefly, the test compounds were dissolved in dimethyl sulfoxide (DMSO) at a concentration of 20 mM and then subjected to serial dilution, thereby creating an 8 point curve. As for the control group, a 6 point curve created by serial dilution of Talabostat in the same buffer solution was used. Fluorescence intensity was measured using a microplate reader (Flexstation3, Molecular Devices) under the wavelength condition exciting at 380 nm and reading the emission at 460 nm. The inhibitory effect of the test compounds was measured as a decrease (%) in the signal rate as compared to the control group without any inhibitor. Data was fixed to a logistic model with four variables and IC50 value was calculated using GraphPad Prism program. As for recombinant human DPP4 (R&D Systems), 25 mM tris (pH 8.0) buffer as a buffer solution and H-Gly-Pro-AMC (Bachem) as a substrate were used. As for recombinant human DPP7 (R&D Systems), 25 mM MES (pH 6.0) buffer as a buffer solution and Lys-Pro-AMC (Bachem) as a substrate were used. As for recombinant human DPP8 (PBS Bioscience), as a buffer solution, a 10 mM tris (pH 7.4) buffer comprising 10 mM of magnesium chloride and 0.05% of Tween 20, and Z-Ala-Pro-AMC (BPS Bioscience) as a substrate were used. As for recombinant human DPP9 (R&D Systems), a 25 mM tris (pH 8.0) buffer as a buffer solution and H-Gly-Pro-AMC (Bachem) as a substrate were used. As for recombinant human PREP (R&D System), as a buffer solution, a 25 mM tris (pH 7.5) buffer comprising 250 mM sodium chloride and 2.5 mM DTT (Dithiolthreitol), and Z-Gly-Pro-AMC (Bachem) as a substrate were used. The evaluation was made by using 10 ng of DPP4, PDD7, and PREP, 20 ng of DPP8, and 50 ng of DPP9 based on the final reaction. In the evaluation of DPP4, the test compounds were subjected to serial dilution in a buffer under the condition containing up to 0.1% of DMSO. In the evaluation of DPP7, DPP8, DPP9, and PREP, the test compounds were subjected to serial dilution in each buffer under the condition containing up to 0.5% of DMSO.

recombinant human PREP = target: T5, recombinant human PREP (Homo sapiens, UniProt P48147); experiment: PREP inhibition, fluorogenic substrate Z-Gly-Pro-AMC; conditions: Inhibitory Activity (IC50, nM) PREP
T5 construct: purchased R&D System
T5 sequence (P48147 1-710): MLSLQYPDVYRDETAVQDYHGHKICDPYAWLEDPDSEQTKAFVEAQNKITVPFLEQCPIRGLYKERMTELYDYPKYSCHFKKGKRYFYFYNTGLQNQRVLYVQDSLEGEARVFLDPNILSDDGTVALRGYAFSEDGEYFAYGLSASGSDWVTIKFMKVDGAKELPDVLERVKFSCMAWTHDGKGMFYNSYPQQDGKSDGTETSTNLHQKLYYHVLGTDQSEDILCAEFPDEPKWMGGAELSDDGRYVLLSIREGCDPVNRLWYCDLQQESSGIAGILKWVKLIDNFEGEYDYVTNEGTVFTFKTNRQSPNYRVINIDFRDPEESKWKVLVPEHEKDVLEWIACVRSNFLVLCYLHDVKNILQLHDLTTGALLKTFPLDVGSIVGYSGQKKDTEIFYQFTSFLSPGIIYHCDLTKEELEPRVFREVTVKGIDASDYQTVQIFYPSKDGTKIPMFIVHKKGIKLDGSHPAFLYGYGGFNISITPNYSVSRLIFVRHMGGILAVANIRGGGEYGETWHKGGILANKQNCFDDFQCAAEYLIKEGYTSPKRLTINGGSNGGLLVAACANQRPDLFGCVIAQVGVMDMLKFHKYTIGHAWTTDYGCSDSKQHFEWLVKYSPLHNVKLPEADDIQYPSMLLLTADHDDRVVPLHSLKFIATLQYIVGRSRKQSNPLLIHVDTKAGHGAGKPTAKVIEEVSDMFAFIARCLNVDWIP
Procedure, shortened: as §1

[1] = 25° C., Z-Gly-Pro-AMC substrate
[2] = 25° C., H-Gly-Pro-AMC substrate
[3] = 25° C., Z-Ala-Pro-AMC substrate
[4] = recombinant human FAP, substrate Z-Gly-Pro-AMC

T3 sequence (Q86TI2 whole entry): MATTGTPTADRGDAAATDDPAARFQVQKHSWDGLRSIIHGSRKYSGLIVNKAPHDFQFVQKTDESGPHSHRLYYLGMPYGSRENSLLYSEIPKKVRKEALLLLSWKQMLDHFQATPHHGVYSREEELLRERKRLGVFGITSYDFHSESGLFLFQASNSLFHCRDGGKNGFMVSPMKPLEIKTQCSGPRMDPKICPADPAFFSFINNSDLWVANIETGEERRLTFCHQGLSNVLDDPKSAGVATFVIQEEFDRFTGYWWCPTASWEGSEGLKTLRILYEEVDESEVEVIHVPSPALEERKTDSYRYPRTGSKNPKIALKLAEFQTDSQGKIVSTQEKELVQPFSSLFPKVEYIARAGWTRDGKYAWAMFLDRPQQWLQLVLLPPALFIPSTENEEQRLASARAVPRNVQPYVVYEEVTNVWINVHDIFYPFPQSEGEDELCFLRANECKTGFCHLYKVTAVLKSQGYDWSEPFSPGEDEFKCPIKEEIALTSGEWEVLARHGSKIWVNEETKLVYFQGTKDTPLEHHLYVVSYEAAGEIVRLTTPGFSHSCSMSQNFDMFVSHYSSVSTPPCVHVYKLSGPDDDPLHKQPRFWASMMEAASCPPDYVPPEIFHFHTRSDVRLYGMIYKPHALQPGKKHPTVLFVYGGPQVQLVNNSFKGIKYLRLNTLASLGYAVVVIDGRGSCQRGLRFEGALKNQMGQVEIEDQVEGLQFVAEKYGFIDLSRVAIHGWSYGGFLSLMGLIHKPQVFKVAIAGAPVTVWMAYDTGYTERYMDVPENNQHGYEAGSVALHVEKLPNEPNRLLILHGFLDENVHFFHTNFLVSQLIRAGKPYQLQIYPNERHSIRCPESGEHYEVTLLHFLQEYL
T4 sequence (Q6V1X1 whole entry): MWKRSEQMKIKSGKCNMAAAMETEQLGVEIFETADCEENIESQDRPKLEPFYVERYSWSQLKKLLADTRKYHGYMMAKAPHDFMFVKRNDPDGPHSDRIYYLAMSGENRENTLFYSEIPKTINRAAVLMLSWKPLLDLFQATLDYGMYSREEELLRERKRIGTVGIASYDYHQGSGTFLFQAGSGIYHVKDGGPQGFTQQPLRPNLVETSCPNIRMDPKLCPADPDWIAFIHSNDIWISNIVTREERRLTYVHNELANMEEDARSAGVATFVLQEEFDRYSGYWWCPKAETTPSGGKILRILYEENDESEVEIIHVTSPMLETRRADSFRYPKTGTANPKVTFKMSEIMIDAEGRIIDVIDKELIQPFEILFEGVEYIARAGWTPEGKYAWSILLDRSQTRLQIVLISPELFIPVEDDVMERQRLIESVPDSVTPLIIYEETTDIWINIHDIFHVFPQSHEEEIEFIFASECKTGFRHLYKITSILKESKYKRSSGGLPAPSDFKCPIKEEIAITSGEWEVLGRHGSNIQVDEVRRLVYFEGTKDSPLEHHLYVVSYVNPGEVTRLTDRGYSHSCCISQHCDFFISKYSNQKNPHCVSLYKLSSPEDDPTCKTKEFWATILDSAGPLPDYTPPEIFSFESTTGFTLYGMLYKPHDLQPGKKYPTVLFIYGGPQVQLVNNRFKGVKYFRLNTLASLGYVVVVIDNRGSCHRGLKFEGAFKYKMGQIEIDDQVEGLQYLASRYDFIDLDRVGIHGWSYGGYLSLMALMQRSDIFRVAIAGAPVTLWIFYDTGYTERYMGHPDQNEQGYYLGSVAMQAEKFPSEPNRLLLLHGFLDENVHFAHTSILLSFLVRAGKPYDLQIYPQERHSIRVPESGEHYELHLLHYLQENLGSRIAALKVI

SMILES	IC50 (recombinant human DPP7) [nM]	IC50 (Recombinant human FAP; [1]) [nM]	IC50 (recombinant human DPP9; [2]) [nM]	IC50 (recombinant human DPP8; [3]) [nM]	IC50 (recombinant human PREP; [1]) [nM]	IC50 (recombinant human DPP7; recombinant human DPP7) [nM]	IC50 (Recombinant human FAP; [4]) [nM]	IC50 (recombinant human DPP9; recombinant human DPP9) [nM]	IC50 (recombinant human DPP8; recombinant human DPP8) [nM]	IC50 (recombinant human PREP; recombinant human PREP) [nM]
CN(c1ccc2ncccc2c1)[C@@H]1CCN(CC(=O)N2CCC[C@H]2C#N)C1 [Example 140, (2S)-1-[2-[(3R)-3-[methyl(6-quinolyl)amino]pyrrolidin-1-yl]acetyl]pyrrolidine-2-carbonitrile]	1400	15.7	32600	≥ 100000	4260					
CN(c1ccc2ncccc2c1)[C@H]1CCN(CC(=O)N2CCC[C@H]2C#N)C1 [Example 145, (2S)-1-[2-[(3S)-3-[methyl(6-quinolyl)amino]pyrrolidin-1-yl]acetyl]pyrrolidine-2-carbonitrile]	2030	2.7	16800	19100	2690					
N#C[C@@H]1C[C@H](F)CN1C(=O)CN1CC[C@@H](Nc2cccc3ncccc23)C1 [Example 166, (2S,4S)-4-fluoro-1-[2-[(3R)-3-(5-quinolylamino)pyrrolidin-1-yl]acetyl]pyrrolidine-2-carbonitrile]						958	2.1	1830	6160	769
N#C[C@@H]1C[C@H](F)CN1C(=O)CN1CC[C@@H](Nc2ccnc3ccccc23)C1 [Example 170, (2S,4S)-4-fluoro-1-[2-[(3R)-3-(4-quinolylamino)pyrrolidin-1-yl]acetyl]pyrrolidine-2-carbonitrile]						302	3.5	2700	14000	7980
CN(c1cnc2ccc(F)cc2c1)[C@H]1CCN(CC(=O)N2CCC[C@H]2C#N)C1 [Example 151, (S)-1-(2-((S)-3-((6-fluoroquinolin-3-yl)(methyl)amino)pyrrolidin-1-yl)acetyl)pyrrolidine-2-carbonitrile]	2550	1.6	23900	12300	3090					
N#C[C@@H]1C[C@H](F)CN1C(=O)CN1CCC(Nc2cncc3ccncc23)CC1 [Example 360, (2S,4S)-4-fluoro-1-[2-[4-(2,6-naphthyridin-4-ylamino)-1-piperidyl]acetyl]pyrrolidine-2-carbonitrile]						1340	1.9	7350	≥ 100000	16400
N#C[C@@H]1C[C@H](F)CN1C(=O)CN1CC[C@@H](Nc2ccc3ncccc3c2)C1 [Example 167, (2S,4S)-4-fluoro-1-[2-[(3R)-3-(6-quinolylamino)pyrrolidin-1-yl]acetyl]pyrrolidine-2-carbonitrile]						2040	1.4	2560	6280	5860
CN(c1ccc2cccnc2c1)[C@H]1CCN(CC(=O)N2CCC[C@H]2C#N)C1 [Example 146, (2S)-1-[2-[(3S)-3-[methyl(7-quinolyl)amino]pyrrolidin-1-yl]acetyl]pyrrolidine-2-carbonitrile]	916	6.6	≥ 100000	≥ 100000	4590					
N#C[C@@H]1CCCN1C(=O)CN1CC[C@@H](Nc2ccc3ncccc3c2)C1 [Example 162, (2S)-1-[2-[(3R)-3-(6-quinolylamino)pyrrolidin-1-yl]acetyl]pyrrolidine-2-carbonitrile]						2340	5.2	14900	≥ 100000	2610
N#C[C@@H]1CCCN1C(=O)CN1CC[C@@H](Nc2cccc3ncccc23)C1 [Example 161, (S)-1-(2-((R)-3-(quinolin-5-ylamino)pyrrolidin-1-yl)acetyl)pyrrolidine-2-carbonitrile]						5450	1.4	25400	41500	4250
COc1cccc2cc(N(C)[C@H]3CCN(CC(=O)N4CCC[C@H]4C#N)C3)cnc12 [Example 154, (S)-1-(2-((S)-3-((8-methoxyquinolin-3-yl)(methyl)amino)pyrrolidin-1-yl)acetyl)pyrrolidine-2-carbonitrile]	3310	5.2	41700	22000	970					
